Measured values as given in ChEMBL document CHEMBL5154875, “Discovery of Potent Orally Bioavailable WD Repeat Domain 5 (WDR5) Inhibitors Using a Pharmacophore-Based Optimization” (J Med Chem, 2022).

What was measured:
[1] = target: WD repeat-containing protein 5 (Homo sapiens, UniProt P61964); assay: Competitive binding affinity to N-terminal 6xHis-SUMO-tagged human WDR5 (22 to 334 residues) expressed in Escherichia coli BL21-Gold (DE3) cells assessed as inhibition constant using 10-mer-Thr-FAM peptide as substrate incubated for 1 hr by Lantha Screen based TR-FRET assay
[2] = system: MOLM-13; assay: Anti-proliferative activity against human MOLM-13 cells assessed as inhibition of cell proliferation incubated for 5 days by Cell Titre Glo luminescent assay; assay type: functional; conditions: Homo sapiens, MOLM-13, 120 h, time 5 day
[3] = system: K562; assay: Anti-proliferative activity against human K562 cells assessed as inhibition of cell proliferation incubated for 5 days by Cell Titre Glo luminescent assay; assay type: functional; conditions: Homo sapiens, K562, 120 h, time 5 day
[4] = system: MV4-11; assay: Anti-proliferative activity against human MV4-11 cells assessed as inhibition of cell proliferation incubated for 5 days by Cell Titre Glo luminescent assay; assay type: functional; conditions: Homo sapiens, MV4-11, 120 h, time 5 day
[5] = Half life in CD-1 mouse at 10 mg/kg, po measured 0.083 to 24 hrs post-treatment by LC-MS/MS analysis; assay type: ADME, organism-based; conditions: mouse, in vivo, po, 10 mg/kg, time 0.083-24 hrs

SMILES	Ki [1] [nM]	GI50 [2] [nM]	GI50 [3] [nM]	GI50 [4] [nM]	t1/2 [5] [h]
CCn1cc(-c2cc(Cn3ccnc3C)cc3c2CCN([C@H](C)c2cc(OC)ccn2)C3=O)c(C(F)(F)F)n1	0.029	110	7800	39	–
CCn1cc(-c2cc(Cn3ccnc3)cc3c2CCN([C@H](c2cc(OC)ccn2)C2CC2)C3=O)c(C(F)(F)F)n1	< 0.02	37	1500	19	1.2
Cc1cc(CN2CCc3c(cc(Cn4ccnc4C)cc3-c3cn(C)nc3C(F)(F)F)C2=O)ccn1	0.064	550	13000	270	–
COc1cc(CN2CCc3c(cc(Cn4ccn(C)c4=N)cc3-c3cn(C)nc3C(F)(F)F)C2=O)cc(OC)c1	< 0.02	110	> 30000	39	–
CCn1cc(-c2cc(Cn3ccnc3)cc3c2CCN([C@H](C)c2cc(OC)ccn2)C3=O)c(C(F)(F)F)n1	0.028	100	12000	39	–
COc1cc(CN2CCc3c(cc(Cn4ccn(C)c4=N)cc3-c3cn(C)nc3C)C2=O)cc(OC)c1	0.023	570	> 30000	210	–
COc1cc(CN2CCc3c(cc(Cn4ccn(C)c4=N)cc3-c3c(C)nn(C)c3C)C2=O)cc(OC)c1	0.21	> 30000	> 30000	19000	–
COc1cc(CN2CCc3c(cc(Cn4ccnc4C4CC4)cc3-c3cn(C)nc3C(F)(F)F)C2=O)cc(OC)c1	0.028	710	8500	240	–
COc1cc(CN2CCc3c(cc(Cn4ccn(C)c4=N)cc3-c3cc(C)nn3C)C2=O)cc(OC)c1	0.025	270	> 30000	85	–
Cc1ccnc(CN2CCc3c(cc(Cn4ccnc4C)cc3-c3cn(C)nc3C(F)(F)F)C2=O)c1	0.02	33	3600	23	–
COc1cc(CN2CCc3c(cc(Cn4cccn4)cc3-c3cn(C)nc3C(F)(F)F)C2=O)cc(OC)c1	> 6.7	20000	> 30000	22000	–
COc1cc(CN2CCc3c(cc(Cn4ccn(C)c4=N)cc3-c3cc(C)cnc3C)C2=O)cc(OC)c1	0.022	2400	> 30000	640	–
COc1cc(CN2CCc3c(cc(Cn4ccn(C)c4=N)cc3-c3ccncc3C)C2=O)cc(OC)c1	0.029	640	> 30000	230	–
CCc1ccnc(CN2CCc3c(cc(Cn4ccnc4C)cc3-c3cn(C)nc3C(F)(F)F)C2=O)c1	< 0.02	25	4100	16	–
Cc1cccc(CN2CCc3c(cc(Cn4ccnc4C)cc3-c3cn(C)nc3C(F)(F)F)C2=O)n1	0.039	330	13000	170	–
COc1cc(CN2CCc3c(cc(Cn4ccnc4)cc3-c3cn(C)nc3C(F)(F)F)C2=O)cc(OC)c1	< 0.02	180	9100	59	–
COc1cc(CN2CCc3c(cc(Cn4ccnc4C(C)C)cc3-c3cn(C)nc3C(F)(F)F)C2=O)cc(OC)c1	3.4	7700	6000	4700	–

SMILES	Ki [1] [nM]	GI50 [2] [nM]	GI50 [3] [nM]	GI50 [4] [nM]	t1/2 [5] [h]
COc1cc(CN2CCc3c(cc(Cn4ccnc4C)cc3-c3cn(C)nc3C(F)(F)F)C2=O)cc(OC)c1	< 0.02	110	3700	32	–
CCc1ccnc(CN2CCc3c(cc(Cn4ccnc4C)cc3-c3cn(CC)nc3C(F)(F)F)C2=O)c1	< 0.02	43	5600	24	–
CCc1nccn1Cc1cc2c(c(-c3cn(C)nc3C(F)(F)F)c1)CCN(Cc1cc(OC)cc(OC)c1)C2=O	–	240	7500	94	–
COc1cc(CN2CCc3c(cc(Cn4cnnc4)cc3-c3cn(C)nc3C(F)(F)F)C2=O)cc(OC)c1	6.5	> 30000	> 30000	16000	–
CCn1cc(-c2cc(Cn3ccn(C)c3=N)cc3c2CCN(Cc2cc(OC)cc(OC)c2)C3=O)c(C(F)(F)F)n1	< 0.02	110	> 30000	36	–
COc1cc(CN2CCc3c(cc(Cn4ccn(C)c4=N)cc3-c3cc(C)ncc3C)C2=O)cc(OC)c1	< 0.02	560	> 30000	200	–
COc1cc(CN2CCc3c(cc(Cn4ccn(C)c4=N)cc3-c3ccc(F)cc3OC)C2=O)cc(OC)c1	0.033	420	18000	210	–
COc1cc(CN2CCc3c(cc(Cn4ccnc4C(F)F)cc3-c3cn(C)nc3C(F)(F)F)C2=O)cc(OC)c1	> 6.7	20000	> 30000	12000	–
COc1cc(CN2CCc3c(cc(Cn4ccn(C)c4=N)cc3-c3cccnc3OC)C2=O)cc(OC)c1	0.055	1600	> 30000	560	–
COc1cc(CN2CCc3c(cc(Cn4ccn(C)c4=N)cc3-c3conc3C)C2=O)cc(OC)c1	0.046	2100	> 30000	850	–
Cc1nccn1Cc1cc2c(c(-c3cn(C)nc3C(F)(F)F)c1)CCN(Cc1ccccn1)C2=O	0.23	3100	> 30000	1500	–
Cc1cccnc1CN1CCc2c(cc(Cn3ccnc3C)cc2-c2cn(C)nc2C(F)(F)F)C1=O	0.59	4700	22000	3000	–
COc1cc(CN2CCc3c(cc(Cn4ccn(C)c4=N)cc3-c3ccc(F)cc3O)C2=O)cc(OC)c1	0.035	220	> 30000	88	–
CCn1cc(-c2cc(Cn3ccnc3C)cc3c2CCN(Cc2cc(OC)ccn2)C3=O)c(C(F)(F)F)n1	< 0.02	59	13000	34	–
COc1cc(CN2CCc3c(cc(Cn4cccc4)cc3-c3cn(C)nc3C(F)(F)F)C2=O)cc(OC)c1	> 6.7	15000	> 30000	15000	–
COc1cc(CN2CCc3c(cc(Cn4ccn(C)c4=N)cc3-c3cccnc3C)C2=O)cc(OC)c1	0.036	3900	> 30000	1200	–
